Patent US6417187B2, “1,2,4-triazole based compounds that can be used as insecticides or acaricides and processes” (Dow AgroSciences LLC, priority 2000, dated 2002)
Where two headings read alike, the source gives them in different places.

Key:
Assay type in all cases: in vivo
[1] = test system: Sweetpotato Whitefly (Bemisia tabacia); test: Insecticidal test for Sweetpotato Whitefly (cotton plant spray); details: for pest or weed control at 200 ppm: Bemisia, 312 h, read-out: WF: activity at 200 ppm against whitefly (% Control rating)
[2] = test system: two-spotted spider mite (Tetranychus urticae); test: Insecticidal test for two-spotted spider mite, ovicide method; details: for pest or weed control at 2.5 ppm: Tetranychus urticae, foliar, 144 h, read-out: SM: activity at 2.5 ppm against two-spotted spider mite (% Control rating)
[3] = test system: cotton aphid (Aphis gossvpii); test: Insecticidal test for cotton aphid (squash cotyledon spray); details: for pest or weed control at 50 ppm: 72 h, read-out: CA: activity at 50 ppm against cotton aphid (% Control rating)
[4] = test system: tobacco budworm (Heliothis virescens); test: Insecticidal test for tobacco budworm (cotton cotyledon leaf-disc dip); details: for pest or weed control at 400 ppm: Heliothis virescens, 120 h, read-out: TBW: activity at 400 ppm against tobacco budworm (% Control rating)
[5] = test system: beet armyworm (Spodoptera exigua); test: Insecticidal test for beet armyworm (treated lepidopteran diet); details: for pest or weed control at 400 ppm: Spodoptera exigua, 120 h, read-out: BAW: activity at 400 ppm against beet armyworm (% Control rating)
[6] = test system: cabbage looper (Trichoplusia ni); test: Insecticidal test for cabbage looper (cabbage leaf-disc dip); details: for pest or weed control at 400 ppm: Trichoplusia ni, 120 h, read-out: CL: activity at 400 ppm against cabbage looper (% Control rating)
[7] = test system: Brown Planthopper (Nilaparvata lugens); test: Insecticidal test for Brown Planthopper (rice seedling roots in test solution)
[8] = test system: Green Leafhopper (Nephotettix cincticeps); test: Insecticidal test for Green Leafhopper (rice seedling roots in test solution)
[9] = 200 ppm spray on cotton plants, 13 days, reduction of large nymphs
[10] = 2.5 ppm (table footnote), ovicide method on cotton leaf discs, 6 days
[11] = 50 ppm spray on infested squash cotyledons, 3 days, population reduction versus untreated
[12] = 400 ppm, cotton cotyledon leaf-dip, 2nd instar larvae, 5 days
[13] = 400 ppm, treated diet, second-instar larvae, 5 days
[14] = 400 ppm, cabbage leaf-dip, 2nd instar larvae, 5 days
[15] = 10 ppm test solution, rice seedling roots, 3rd instar nymphs, mortality at 6 days

Row | SMILES | WF: activity at 200 ppm against whitefly (% Control rating) [1, 9] | SM: activity at 2.5 ppm against two-spotted spider mite (% Control rating) [2, 10] | CA: activity at 50 ppm against cotton aphid (% Control rating) [3, 11] | TBW: activity at 400 ppm against tobacco budworm (% Control rating) [4, 12] | BAW: activity at 400 ppm against beet armyworm (% Control rating) [5, 13] | CL: activity at 400 ppm against cabbage looper (% Control rating) [6, 14] | pest or weed control at 200 ppm [1, 9] | pest or weed control at 50 ppm [3, 11] | BPH: activity at 10 ppm against brown planthopper (% Control rating) [7, 15] | pest or weed control at 400 ppm [4, 12] | pest or weed control at 400 ppm [6, 14] | GLH: activity at 10 ppm against green leafbopper (% Control rating) [8, 15] | also measured
1 | Cn1nc(-c2c(F)cccc2Cl)nc1-c1ccc(C#C[Si](C)(C)C)c(Cl)c1Cl [Compound 96] | F (less than 50) | D (60-69) | D (60-69) | F (less than 50) | A (90-100) | A (90-100) | – | – | – | – | – | – | –
2 | Cn1nc(-c2c(F)cccc2Cl)nc1-c1sc(C#Cc2ccccc2)c(Cl)c1Cl [Compound 4] | – | – | – | – | – | – | < 50% | 80 to 89% | E (50-59) | < 50% | 90 to 100% | – | pest or weed control at 2.5 ppm [2, 10]: 60 to 69%; pest or weed control at 400 ppm [5, 13]: 90 to 100%
3 | Cn1nc(-c2c(F)cccc2Cl)nc1-c1sc(C#CC(C)(C)C)c(Cl)c1Cl [Compound 3] | – | – | – | – | – | – | < 50% | 90 to 100% | – | 60 to 69% | 90 to 100% | – | pest or weed control at 2.5 ppm [2, 10]: 80 to 89%
4 | CCCCCCc1ccc(C#Cc2sc(-c3nc(-c4c(F)cccc4Cl)nn3C)c(Cl)c2Cl)cc1 [Compound 54] | – | – | – | – | – | – | – | – | – | – | – | – | WF: activity at 200 ppm against whitefly (% Control rating) ([1]; in vivo): F (key: A: 90-100; B: 80-89; C: 70-79; D: 60-69; E: 50-59; F: less than 50; G: inactive); CA: activity at 50 ppm against cotton aphid (% Control rating) ([3]; in vivo): E (key: A: 90-100; B: 80-89; C: 70-79; D: 60-69; E: 50-59; F: less than 50; G: inactive); BPH: activity at 10 ppm against brown planthopper (% Control rating) ([7]; in vivo): F (key: A: 90-100; B: 80-89; C: 70-79; D: 60-69; E: 50-59; F: less than 50; G: inactive); GLH: activity at 10 ppm against green leafbopper (% Control rating) ([8]; in vivo): F (key: A: 90-100; B: 80-89; C: 70-79; D: 60-69; E: 50-59; F: less than 50; G: inactive); TBW: activity at 400 ppm against tobacco budworm (% Control rating) ([4]; in vivo): A (key: A: 90-100; B: 80-89; C: 70-79; D: 60-69; E: 50-59; F: less than 50; G: inactive); BAW: activity at 400 ppm against beet armyworm (% Control rating) ([5]; in vivo): A (key: A: 90-100; B: 80-89; C: 70-79; D: 60-69; E: 50-59; F: less than 50; G: inactive); CL: activity at 400 ppm against cabbage looper (% Control rating) ([6]; in vivo): B (key: A: 90-100; B: 80-89; C: 70-79; D: 60-69; E: 50-59; F: less than 50; G: inactive)
5 | Cn1nc(-c2c(F)cccc2Cl)nc1-c1ccc(C#Cc2ccc(F)cc2)c(Cl)c1Cl [Compound 92] | F (less than 50) | F (less than 50) | A (90-100) | – | A (90-100) | A (90-100) | – | – | F (less than 50) | – | – | F (less than 50) | –
6 | Cn1nc(-c2c(F)cccc2Cl)nc1-c1sc(C#C[Si](C)(C)C)c(Cl)c1Cl [Compound 1, 1-Methyl-3-(2-chloro-6-fluorophenyl)-5-(3,4-dichloro-5-(2-trimethylsilyl-ethynyl)-thien-2-yl) [1 2,4]triazole] | – | – | – | – | – | – | < 50% | 50 to 59% | F (less than 50) | 90 to 100% | 90 to 100% | B (80-89) | pest or weed control at 2.5 ppm ([2]; in Gossypium hirsutum): 80 to 89%; pest or weed control at 400 ppm [5, 13]: 90 to 100%
7 | Cc1c(C#Cc2ccccc2)csc1-c1nc(-c2c(F)cccc2Cl)nn1C [Compound 67] | F (less than 50) | B (80-89) | A (90-100) | B (80-89) | A (90-100) | – | – | – | – | – | – | – | –
8 | CCN(CC)c1ncc(C#Cc2sc(-c3nc(-c4c(F)cccc4Cl)nn3C)c(Cl)c2Cl)cn1 [Compound 41] | – | – | – | – | – | – | < 50% | < 50% | E (50-59) | 60 to 69% | 80 to 89% | – | pest or weed control at 2.5 ppm [2, 10]: < 50%; pest or weed control at 400 ppm [5, 13]: 90 to 100%
9 | CCCOc1ccc(C#Cc2sc(-c3nc(-c4c(F)cccc4Cl)nn3C)c(Cl)c2Cl)cc1 [Compound 15] | F (less than 50) | – | D (60-69) | F (less than 50) | D (60-69) | D (60-69) | – | – | F (less than 50) | – | – | F (less than 50) | –
10 | Cn1nc(-c2c(F)cccc2Cl)nc1-c1sc(C#Cc2cccc(F)c2F)c(Cl)c1Cl [Compound 27] | D (60-69) | F (less than 50) | – | D (60-69) | A (90-100) | A (90-100) | – | – | E (50-59) | – | – | F (less than 50) | –
11 | CCCc1ccc(C#Cc2cc(C)c(-c3nc(-c4c(F)cccc4Cl)nn3C)s2)cc1 [Compound 72] | F (less than 50) | F (less than 50) | C (70-79) | – | A (90-100) | B (80-89) | – | – | F (less than 50) | – | – | – | –
12 | CCCCC#Cc1cncc(-c2nc(-c3c(Cl)cncc3Cl)nn2C)c1 [Compound 86] | F (less than 50) | C (70-79) | E (50-59) | – | – | – | – | – | F (less than 50) | – | – | F (less than 50) | –
